Read-outs that look alike come from different tables or passages of the source.

For data set [1], the system named is thymidylate synthase (TS). The data set is described as follows: Historical group comparison study: incremental plasma dUrd (marker of TS inhibition) 24 h after 5-FU bolus plus folate. The format is in vivo, human. The note with it: LV 60 mg/m^2 BSA (racemate; active compound 30 mg/m^2), bolus with 5-FU 500 mg/m^2, 24 hours, n=48. Here is the method: The elevation of plasma 2′-deoxyuridine (dUrd) is a marker of TS inhibition. (Ford et al. (2002) Clinical Cancer Research, 8(1): 103-109).
The historical group comparison study was conducted as follows:
All patients were treated with a standard dose of 500 mg 5-FU given as a bolus injection plus the respective folate [6R]-MTHF or LV, also given as bolus injections.
In Gothenburg (Sweden), for almost two decades, clinical, treatment and outcomes data on all patients with CRC have been collected at the local university hospital (Östra sjukhuset—Sahlgrenska Universitetssjukhuset). Plasma and tissue samples have been stored in a biobank under appropriate physical conditions for long term storage. The database and the biobank operate under the auspices of the relevant ethical and regulatory permissions. Patients having been treated with the standard 5-FU dose, 500 mg/m2 plus i.v. bolus LV, 60 mg/m2 were randomly drawn from the databank. For all patients, stored plasma samples were used for determination of dUrd.
Twenty-four patients with metastatic colorectal cancer (mCRC) treated with 5-FU plus 60 mg/m^2 LV were drawn at random from the database and levels of dUrd were determined at t0 and t24 from two treatment cycles for each patient and the mean values and standard deviations for the differences between t24 and t0 were calculated in the same way as for the [6R]-MTHF patients. Since LV is a “racemic” 50:50 mixture of the natural (S-formyl-tetrahydrofolate) and unnatural (R-formyl-tetrahydrofolate) isomers, the active isomer constitutes one half of the racemic LV doses given. The molecular weights for LV and [6R]-MTHF are very similar and therefore 60 mg of LV may be considered as equimolar with 30 mg of [6R]-MTHF.
All patients were enrolled in the ISO-CC-005 study and measured during two consecutive treatment cycles with 5-FU. Values for dUrd were measured immediately before injection of 5-FU (to) and after 24 hours (t24). Mean values and standard deviations for differences between t24 and to were calculated for the patients on each dose level of 30 and 60 mg/m^2 respectively.
The differences between all three groups were tested by means of the […] and thereafter the difference between the two equimolar groups LV 60 mg/m2 and 6R-MTHF 30 mg/m^2 was tested by means of the Mann-Whitney U test. P-values less than 0.05 were considered significant.
Plasma dUrd was determined by a method comprising liquid chromatography followed by tandem mass spectrometry broadly summarized as follows. Plasma samples were removed from −80° C. freezer, trichloroacetic acid was added to the plasma, and the samples mixed and centrifuged. The supernatant was filtered in a 10 kDa molecular weight cut-off membrane filter and again centrifuged for 30 min. The solution at the bottom of the tube was then ready for LC-MS/MS analysis. Calibration samples were prepared in the same way using blank plasma samples and different internal standard concentrations. The injection volume into LC-MS/MS was 40 μl. Deoxyuridine and chlorodeoxyuridine were ionized by electrospray negative mode. MS parameters were optimized for maximum response of all folates. A MS/MS acquisition method (multiple reaction monitoring) was utilized.

The subject of another data set is colorectal cancer. The settings on record: cited from earlier work; for ORR: Phase IIb, first-line patients, in combination with 5-FU.
For data set [2] the following is noted: Phase IIb, first-line patients, in combination with 5-FU; cited from earlier work.
In another data set the test system is solid tumors. The note with it: cited from earlier work.
In the next data set the test system is colorectal tumors. The settings on record: cited from earlier work.
The next data set deals with Thymidylate Synthase (Lacticaseibacillus casei, UniProt P00469). The note with it: cited from earlier work.
Data set [3] relates to previously untreated metastatic colorectal cancer. The note with it: Phase II Trial; cited from earlier work.
Another data set has as its system pancreas cancer. The note with it: CoFactor combined with 5-FU; cited from earlier work.
Data set [4] concerns advanced and recurring head and neck squamous cell cancer. The settings on record: 5-FU in combination therapies with platinum compounds; cited from earlier work.

Thymidylate Synthase, sequence (P00469 whole entry): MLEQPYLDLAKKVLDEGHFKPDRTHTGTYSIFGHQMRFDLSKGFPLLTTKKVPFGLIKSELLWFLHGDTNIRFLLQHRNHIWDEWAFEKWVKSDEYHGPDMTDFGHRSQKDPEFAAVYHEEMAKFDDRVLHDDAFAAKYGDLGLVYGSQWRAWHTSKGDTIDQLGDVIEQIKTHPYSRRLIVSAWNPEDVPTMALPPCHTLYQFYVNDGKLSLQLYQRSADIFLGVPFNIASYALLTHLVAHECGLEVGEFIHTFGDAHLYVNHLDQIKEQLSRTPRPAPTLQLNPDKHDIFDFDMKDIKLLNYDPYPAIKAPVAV

On to `Nc1nc2c(c(=O)[nH]1)N(C=O)C(CNc1ccc(C(=O)N[C@@H](CCC(=O)O)C(=O)O)cc1)CN2` (stereo partly drawn) [LV, 5-formyl tetrahydrofolic acid], for which the “Mean (t24-t0) plasma dUrd” value in data set [1] is 48.7 pmol/mL. In the data set with colorectal cancer, the ORR was 13.3%. Also, in data set [2], the “patients reporting at least one AE of grade 3 or greater” value was 3.3%. In the data set on solid tumors (LV added to 5-FU), the overall response rates entry is “over 20%”. For the same molecule, the response rate with colorectal tumors (Leucovorin (LV) added to 5-FU) is reported as 21%.

Consider `Nc1nc2c(c(=O)[nH]1)N1CN(c3ccc(C(=O)N[C@@H](CCC(=O)O)C(=O)O)cc3)C[C@@H]1CN2` [[6S]-MTHF], for which the “effect on the natural [6R]-isomer as co-substrate for TS” value on Thymidylate Synthase is recorded as “partial competitive inhibitor”.

`Nc1nc(=O)c2c([nH]1)NCC1CN(c3ccc(C(=O)N[C@@H](CCC(=O)[O-])C(=O)[O-])cc3)CN21.[Ca+2]` (stereo partly drawn) [CoFactor, (dl)-5,10,-methylenepteroyl-monoglutamate calcium salt]: the “efficacy and safety compared with leucovorin” value in the data set with colorectal cancer (Phase IIb study, colorectal cancer) is recorded as “no significant differences”. Besides, the ORR in the data set on colorectal cancer is reported as 10.7%. The “patients reporting at least one AE of grade 3 or greater” value in data set [2] is reported as 7.7%. Also, the response rate in [3] was 35%. Also, the “clinical benefit, defined as stable disease or tumor response, patients” value with pancreas cancer is given as 40%.

`O=c1[nH]cc(F)c(=O)[nH]1` [5-FU, 5-fluorouracil]: the overall response rate with solid tumors (5-FU alone) is given as 10-15%. Besides, the response rate entry in the data set with colorectal tumors (5-FU given as a monotherapy) is “around 10%”. Besides, in [4], the Response rates entry was “around 30%” and the survival time entry is reported as “around 6 months”.
